Experiments:
Kv1.3 = Kv1.3 (Homo sapiens, UniProt P22001); test: Whole cell patch clamp electrophysiology on HEK293 cells stably expressing human Kv1.3; format: cell-based; conditions: patch clamp electrophysiology
[1] = tested on: IL-2 and IFNg production from anti-CD3 and anti-CD28 stimulated human PBMCs; test: Inhibition of T cell cytokine production following anti-CD3 and anti-CD28 antibody stimulation of PBMCs; format: cell-based; conditions: 48 hours
Experimental: Inhibition of T cell cytokine production following Anti-CD3 and anti-CD28 antibody stimulation of PBMCs. PBMCs were previously isolated from normal human donor Leukopheresis packs, purified by density gradient centrifugation (Ficoll Hypaque), and cryopreserved using INCELL Freezing Medium. PBMCs were thawed (95% viability), washed, and seeded (in RPMI complete medium containing serum replacement, PSG) at 2×10^5 cells per well into 96-well flat bottom plates. Cells were pre-incubated with serially diluted (100 nM-0.003 nM final) ShK[1-35], Fc-L10-ShK[1-35], or Fc control for 1 hour before the addition of aCD3 and aCD28 (2.5 ng/mL and 100 ng/mL respectively) in a final assay volume of […]. Supernatants were collected after 48 hours, and analyzed using the Meso Scale Discovery (MSD) SECTOR™ Imager 6000 (Meso Scale Discovery, Gaithersbury, Md.) to measure the IL-2 and IFNg protein levels by utilizing electrochemiluminescence (ECL). […] of supernatant was added to the MSD multi-spot 96-well plates (each well containing IL-2, TNFa, and IFNg capture antibodies). The plates were sealed and incubated at room temperature on a plate shaker for 1 hour. Then […] of Ruthenium-labeled detection antibodies (1 ug/ml final of IL-2, TNFα, and IFNγ in Antibody Dilution Buffer) and […] of 2×MSD Read Buffer were added. The plates were sealed, covered with tin foil, and incubated at room temperature on a plate shaker for 1 hour. The plates were then read on the SECTOR™ Imager 6000. […] (POC=Percent Of Control of response in the absence of inhibitor).

[2] = Intravenous pharmacokinetic study in rats, serum levels by Kv1.3 inhibition bioassay; format: in vivo, Spraque Dawley rats; conditions: single equal molar IV injection, 5% serum Test solutions
Experimental: This dose represented equal molar amounts of these two molecules. The average weight of the rats was about 0.3 kg and two rats were used for each dose & molecule. At various times following IV injection, blood was drawn and about 0.1 ml of serum was collected. Serum samples were stored frozen at −80° C. until analysis.
Assay Plate preparation for electrophysiology. […] Before experiments, each sample was thawed at room temperature and an aliquot (70 to 80 μl) was transferred to a well in a 96-well polypropylene plate. In order to prepare the Assay Plate, several dilutions were made from the pharmacokinetic serum samples to give rise to Test Solutions. Dilutions of serum samples from the pharmacokinetic study were into 10% Phosphate Buffered Saline (PBS, with Ca^2+ and Mg^2+). […] Standard inhibition curves were also prepared in the Assay Plate.
Cell preparation for electrophysiology. CHO cells stably expressing the voltage-activated K^+ channel, Kv1.3 were plated in T-175 tissue culture flasks (at a density of 5×10^6) 2 days before experimentation and allowed to grow to around 95% confluence. Immediately prior to the experiment, the cells were washed with PBS and then detached with a 2 ml mixture (1:1 volume ratio) of trypsin (0.25%) and versene (1:5000) at 37° C. (for 3 minutes). […] The mean K^+ current amplitude was measured between 430 and 440 ms and the data were exported to a Microsoft Excel spreadsheet. The amplitude of the K^+ current in the presence of each concentration of the Test Solution or Standard was expressed as a percentage of the K^+ current in control conditions in the same well.
Standard inhibition curves were generated for each standard in various levels of rat serum and expressed as current percent of control (POC) versus log of nM concentration. […]
Beyond 48 hours, the level of drug falls outside the linear range of the Standard curve and is not calculated. […]

[3] = tested on: thapsigargin-induced IL-2 and IFN-g production in human whole blood; test: Ex vivo human whole blood assay, thapsigargin-induced secretion of IL-2 and IFN-g; format: cell-based; conditions: two donors, 48 hours
[4] = tested on: upregulation of CD40L and IL-2R on CD4+ T cells in human whole blood; test: Ex vivo human whole blood assay, thapsigargin-induced cell surface CD40L and IL-2R on T cells (FACS); format: cell-based; conditions: 24 hours
[5] = cited from earlier work

Chain of Kv1.3 (P22001 whole entry): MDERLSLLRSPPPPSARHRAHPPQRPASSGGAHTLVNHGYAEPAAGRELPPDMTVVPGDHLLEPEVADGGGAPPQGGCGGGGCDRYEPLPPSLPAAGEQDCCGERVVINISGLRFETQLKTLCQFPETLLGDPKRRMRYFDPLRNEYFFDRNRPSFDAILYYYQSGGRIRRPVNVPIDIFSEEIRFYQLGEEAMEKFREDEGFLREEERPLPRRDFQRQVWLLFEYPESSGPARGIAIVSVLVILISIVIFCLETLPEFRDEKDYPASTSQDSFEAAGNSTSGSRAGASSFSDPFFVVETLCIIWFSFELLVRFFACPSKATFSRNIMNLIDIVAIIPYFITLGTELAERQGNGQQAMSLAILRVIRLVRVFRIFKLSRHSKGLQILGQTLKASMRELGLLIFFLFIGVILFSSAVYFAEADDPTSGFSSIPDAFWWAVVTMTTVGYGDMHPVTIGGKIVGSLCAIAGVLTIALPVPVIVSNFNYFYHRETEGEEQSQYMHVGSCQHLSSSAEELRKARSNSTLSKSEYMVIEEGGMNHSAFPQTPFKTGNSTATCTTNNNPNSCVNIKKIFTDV

## CC[C@H](C)[C@@H]1NC(=O)[C@@H](NC(=O)[C@H](CO)NC(=O)[C@@H](N)CCCNC(=N)N)CSSC[C@@H](C(=O)O)NC(=O)[C@H]([C@@H](C)O)NC(=O)CNC(=O)[C@@H]2CSSC[C@@H]3NC(=O)[C@H](CCC(N)=O)NC(=O)[C@H](Cc4ccccc4)NC(=O)[C@H](C)NC(=O)[C@H]([C@@H](C)O)NC(=O)[C@H](CSSC[C@H](NC(=O)[C@H](Cc4ccccc4)NC(=O)[C@H](CO)NC(=O)[C@H](CC(C)C)NC(=O)[C@H](CCCNC(=N)N)NC(=O)[C@H](Cc4ccc(O)cc4)NC(=O)[C@H](CCCCN)NC(=O)[C@H](CCSC)NC(=O)[C@H](CO)NC(=O)[C@H](Cc4cnc[nH]4)NC(=O)[C@H](CCCCN)NC3=O)C(=O)N[C@@H](CCCNC(=N)N)C(=O)N[C@@H](CCCCN)C(=O)N[C@@H]([C@@H](C)O)C(=O)N2)NC(=O)[C@H](CCCNC(=N)N)NC(=O)[C@H](CO)NC(=O)[C@H](CCCCN)NC(=O)[C@@H]2CCCN2C(=O)[C@H]([C@@H](C)CC)NC(=O)[C@H]([C@@H](C)O)NC(=O)[C@H](CC(=O)O)NC1=O [ShK[1-35], Stichodactyla helianthus neurotoxin, reference compound]
Kv1.3
  Blockade of human Kv1.3 current (in words): potently block Kv1.3
[1]
  Inhibition of IFNg production: only partial inhibtion
  Inhibition of IL-2 production: only partial inhibtion
[2]
  Time of significant suppression of Kv1.3 current (<70 POC) by serum: ≤ 1 h
[3]
  Thapsigargin-induced IFN-g production in human whole blood: suppressed
  Thapsigargin-induced IL-2 production in human whole blood: suppressed
[3]; listed as ShK
  Thapsigargin-induced IL-2 production in human whole blood: potently blocked IL-2 secretion
[4]
  Thapsigargin-induced upregulation of CD40L on T cells in human whole blood: suppressed
  Thapsigargin-induced upregulation of the IL-2R on T cells in human whole blood: suppressed
[4]; listed as ShK
  Thapsigargin-induced upregulation of the IL-2R on T cells in human whole blood: suppressing activation of the IL-2R
[5]
  half-life in vivo of ShK: ~20 min
[5]; in vivo
  half-life of native ShK: approximately 0.33 hour
